pEC50: −log10 of the molar value. No end group written: not given here.
What was measured:
[1] = test system: rabbit whole blood; assay: hemolysis risk test in rabbit whole blood; type: cell-based; details: concentration range of 1 to 50 µM
Description: Preparation of red blood cell suspension: 100 µL of fresh whole blood was collected, and 900 µL of 1× PBS solution was then added. The mixture was shaken on a plate shaker at 30 rpm for 5 min and then centrifuged at 1000 g for 5 min, and the supernatant was discarded. The above washing step was repeated until the supernatant no longer appeared red. The suspension was set aside for later use.
Preparation of test polypeptide solutions: An appropriate amount of 1× PBS solution was added to a powdered polypeptide, and the polypeptide was dissolved to form a standard stock solution. The stock solution was then diluted with 1× PBS to form test solutions with concentrations of 1, 3, 10, 30, 100, and 300 µg/mL, and two replicate wells were set for each concentration. Meanwhile, blank 1× PBS was used as a negative control, and a 1× PBS solution containing 0.1% Triton X-100 was used as a positive control.
Incubation: A test solution (500 µL) was added to the red blood cell suspension, and then the mixture was well shaken on a plate shaker at 30 rpm for 5 min, incubated at 37 °C for 1 h, and centrifuged at 1000 g for 5 min.
100 µL of the supernatant was transferred to a single well of a microplate. The absorbance at 540 nm was measured using a SpectraMax M5 microplate reader, and data analysis was performed using GraphPad Prism 9. The hemolysis rate (%) was calculated using the formula: (test sample absorbance - negative control absorbance) / (positive control absorbance - negative control absorbance) × 100%. A rate of less than 5% indicates the absence of hemolysis, while a rate of greater than 5% indicates the presence of hemolysis. Table 3. Testing of the hemolysis risk of the polypeptide compound
A method similar to that in section 3.3.2 was adopted, with the difference being that this test example used fresh rabbit whole blood instead.

[2] = target: T1, human PSD95-PDZ2 (Homo sapiens, UniProt P78352); assay: binding ELISA with Biotin-PDZ2
T1 construct: PDZ2 (155-249, the Flag-His-Avitag-TEVsite tag is italicized); made in house; host or cells: E. coli BL21-DE3 (PET vector)
T1 sequence (P78352 155-249): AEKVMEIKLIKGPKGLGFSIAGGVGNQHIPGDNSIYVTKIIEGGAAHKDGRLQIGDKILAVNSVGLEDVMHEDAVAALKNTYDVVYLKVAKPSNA

[3] = plasma stability test, rat plasma; type: in vitro ADME; details: Rat plasma, 25 µM
Description: Solution preparation: An appropriate amount of a test polypeptide compound was weighed out and dissolved in an appropriate amount of 1× PBS to form a 1 mM test solution. NA-1 and NoNO42 were used as positive drugs, propantheline bromide was used as a human plasma test control, and lovastatin was used as a rat plasma test control. Plasma stability test: 12.5 µL of the 1 mM test solution was added to a 495 µL pre-incubated plasma sample. […] For each incubation time, two parallel samples were set. Subsequently, 200 µL of stop solution was added to stop the incubation, and the mixtures were vortexed for 5 min. Then the mixtures were centrifuged at 10,000 rpm at 4 °C for 10 min to remove the protein in the sample, and 70 µL of the supernatant was transferred to a new 96-well plate (70 µL of water was added to each well beforehand) and well mixed. […] Sample pretreatment: […] LC-MS analysis: […] (2) Mass-spectrometric conditions: The mass spectrometry analysis used an electrospray ionization (ESI) source, a positive ion analysis mode, and a multi-reaction monitoring (MRM) scan mode. […] The plasma stability of the polypeptide compound

[4] = nephrotoxicity in rats (blood urea nitrogen, serum creatinine); type: in vivo, SD rats; details: for Blood urea nitrogen (BUN) levels / Serum creatinine (Crea) levels: rat serum
Description: With male SD rats as test animals, the nephrotoxicity of a polypeptide compound administered via single intravenous bolus injection in rats (serum) was studied.
This test was performed synchronously with Test Examples 3.6, with blood collection time points set as follows: before administration (day 0), and days 2, 4, and 7 post-administration. At each time point, 0.3 mL of blood was collected, transferred to a centrifuge tube, and left to stand at room temperature for 1 h. Then the whole blood sample was centrifuged at 4 °C at 4000 g for 5 min, and a serum sample was obtained by separation and cryopreserved at -80 °C.
The blood urea nitrogen (BUN) and serum creatinine levels at each time point were determined through commercially available kits. For blood urea nitrogen, the urease continuous monitoring method was used. For serum creatinine, the sarcosine oxidase method was used. The sample was thawed in a refrigerator at 2 to 8 °C and vortexed for thorough mixing, and 100 µL of the sample was pipetted into a sample cup. The cup was placed in the sample position of a biochemistry analyzer, and assays were performed according to the instructions of the kits. The experimental results are shown in Tables 8-1 and 8-2, FIG. 5A, and FIG. 5B.

[5] = 3 nmol/g, day 0 (before administration)

## YGRKKRRQRRRKLSSIESDV [NA-1, YGRKKRRQR RRKLSSIESDV, reference compound]
[1]
  hemolysis rates: less than 5%
[2]
  pEC50: 7.08
[3]; 0min (standard 100%)
  Relative remaining compound content (%): 100.0%
[3]; 10min
  Relative remaining compound content (%): 103.7%
[3]; 20min
  Relative remaining compound content (%): 77.5%
[3]; 30min
  Relative remaining compound content (%): 69.5%
[3]; 60min
  Relative remaining compound content (%): 54.4%
[3]; 120min
  Relative remaining compound content (%): 42.1%
[3]; rat, plasma, 10min, read-out: Relative remaining compound content (%)
  remaining at 10 min, 25 µM: 94.1%
[3]; rat, plasma, 20min, read-out: Relative remaining compound content (%)
  remaining at 20 min, 25 µM: 83%
[3]; rat, plasma, 30min, read-out: Relative remaining compound content (%)
  remaining at 0.5 h, 25 µM: 73.3%
[3]; rat, plasma, 60min, read-out: Relative remaining compound content (%)
  remaining at 1 h, 25 µM: 57%
[3]; rat, plasma, 120min, read-out: Relative remaining compound content (%)
  remaining at 2 h, 25 µM: 28.4%
[4]; [5]
  Blood urea nitrogen (BUN) levels: 10.8 ± 1.9 mg/dL
  Serum creatinine (Crea) levels: 0.198 ± 0.007 mg/dL
[4]; 3 nmol/g, day 2
  Blood urea nitrogen (BUN) levels: 14.8 ± 1.9 mg/dL
  Serum creatinine (Crea) levels: 0.215 ± 0.003 mg/dL
[4]; 3 nmol/g, day 4
  Blood urea nitrogen (BUN) levels: 17.2 ± 3.6 mg/dL
  Serum creatinine (Crea) levels: 0.208 ± 0.008 mg/dL
[4]; 3 nmol/g, day 7
  Blood urea nitrogen (BUN) levels: 19 ± 3.3 mg/dL
  Serum creatinine (Crea) levels: 0.209 ± 0.009 mg/dL
[4]; rats, 3 nmol/g, day 4 and day 7
  increase of blood urea nitrogen level compared to before administration: ≤ 2 fold
[4]; rats, within the tested concentration range, 7-day monitoring period
  renal safety concerns: neither NA-1 nor polypeptide compound 14 caused significant renal safety concerns

Source: patent EP4650362A1, “NEUROPROTECTIVE PSD-95 POLYPEPTIDE INHIBITOR AND USE THEREOF” (Beijing Tuo Jie Biopharmaceutical Co. Ltd., priority 2023, dated 2024)
